US6822146B2, “Sulfonylurea-tolerant sunflower line M7” (priority 2000, dated 2004)

Legend:
'HA89B' seed = experiment: Determination of optimum mutagen concentration; assay type: in vivo, sunflower; conditions: EMS 20 to 40 mM
Protocol: Batches each consisting of 6000 seeds of ‘HA89B’ were incubated in 0.1 M potassium phosphate buffer (pH 5.6), supplemented with concentrations of EMS between 0 and 80 mM for 18 hours at room temperature, causing the seeds to swell. The seeds were rinsed in sodium thiosulfate for 1 minute to decompose the EMS, then in 5 consecutive water washes to eliminate EMS traces. The overall rinsing procedure lasted 5 hours. Seeds were dried for 2 hours at 25° C. using an airflow drier and then divided into sub-batches of 200 seeds each. To determine the effect of EMS on germination and plant branching, sub-batches were sown in flats right after drying and following 2, 4 and 6 days of storage at 4° C. after drying. Plant branching was used as a visual measure of mutation frequencies. Sub-batches from each EMS concentration were also sown in pots right after drying and grown to maturity to determine effect of EMS treatments on seed setting.

BC4-M5M7 = experiment: Test B greenhouse phytotoxicity, BC4-M5M7; assay type: in vivo, sunflower; conditions: BC4-M5M7; 15 g a.i./ha post-emergence 4-leaf stage
Protocol: (§1) A greenhouse experiment was conducted to evaluate the spectrum of tolerance of three homozygous resistant mutants to various herbicides inhibiting acetolactate synthase (ALS) as their mode of action. The inbred lines tested were the 5th generation self-pollinated maintainers, M5M7, M5M11 and M5M12, as well as the 4th generation male sterile back-crosses BC4-M5M7, BC4-M5M11 and BC4-M5M12. Treatments of formulated herbicides were applied post-emergence at the 4-leaf stage. Application rates of the test herbicides were chosen to coincide with the rates commonly used in the crops for which they are registered. The application rate of imazethapyr was chosen to match the rate recommended to control parasitic weeds in sunflowers by L. García-Torres et al., Weed Technology 1995, 9, 819-824. Wild type H89 inbred sunflower was not included in this test, because the many of the tested herbicides are known to be efficacious in controlling volunteer sunflower as a weed. Treatments were replicated twice. […] A rating of 0% phytotoxicity means no crop injury.

BC4-M5M11 = experiment: Test B greenhouse phytotoxicity, BC4-M5M11; assay type: in vivo, sunflower; conditions: BC4-M5M11; 15 g a.i./ha post-emergence 4-leaf stage
Protocol: as §1

[1] = system: homozygous progeny of the three mutant sources; assay type: in vivo, sunflower; conditions: Test B application rates, post-emergence
Protocol: as §1

M5M11 = experiment: Test B greenhouse phytotoxicity, M5M11; assay type: in vivo, sunflower; conditions: M5M11; 15 g a.i./ha post-emergence 4-leaf stage
Protocol: as §1

Stellaria media = experiment: Test H weed control, field plots; assay type: in vivo; conditions: 36 days after treatment; g a.i./ha: tribenuron-methyl 22.5, metsulfuron-methyl 6, ethametsulfuron-methyl 16, imazapyr isopropylamine salt 15, aclonifen 1200
From the text: (§2) Field plots (2 m×5 m) were tilled to remove weed cover and then seeded in rows with the following weeds: Capsella bursa pastoris, Atriplex patula, Chenopodium album, Stellaria media, Mecurialis annua, Polygonum persicaria, Amaranthus retroflexus, Polygonum convolvulus, Polygonum aviculare, Viola arvensis, Matricaria inodora, Anagallis arvensis, Sinapis arvensis, Setaria viridis, Solanum nigrum and Echinochloa crusgalli. After 21 days from sowing, at which time the weeds had reached the 2- to 6-leaf stage, herbicide treatments were applied to the plots according to a complete randomized block design, with each herbicide treatment triply replicated. The herbicides were sprayed using standard flat fan nozzles moved perpendicular to the sown lines using water spray volumes of about 296 L/ha.
(§3) Assessments of weed control were made by visual inspection 36 days after herbicide treatment. A visual rating system was used based on a percentage scale from 0 to 100% compared to an adjacent untreated control plot. On this scale 0 represents no visual differences relative to an untreated control and 100 represents complete control of the given weed species.

Chenopodium album = experiment: Test H weed control, field plots; assay type: in vivo; conditions: 36 days after treatment; g a.i./ha: tribenuron-methyl 22.5, metsulfuron-methyl 6, ethametsulfuron-methyl 16, imazapyr isopropylamine salt 15, aclonifen 1200
From the text: as §2, §3

M5M7 = experiment: Test B greenhouse phytotoxicity, M5M7; assay type: in vivo, sunflower; conditions: M5M7; 15 g a.i./ha post-emergence 4-leaf stage
Protocol: as §1

Atriplex patula = experiment: Test H weed control, field plots; assay type: in vivo; conditions: 36 days after treatment; g a.i./ha: tribenuron-methyl 22.5, metsulfuron-methyl 6, ethametsulfuron-methyl 16, imazapyr isopropylamine salt 15, aclonifen 1200
From the text: as §2, §3

Solanum nigrum = experiment: Test H weed control, field plots; assay type: in vivo; conditions: 36 days after treatment; g a.i./ha: tribenuron-methyl 22.5, metsulfuron-methyl 6, ethametsulfuron-methyl 16, imazapyr isopropylamine salt 15, aclonifen 1200
From the text: as §2, §3

Polygonum persicaria = experiment: Test H weed control, field plots; assay type: in vivo; conditions: 36 days after treatment; g a.i./ha: tribenuron-methyl 22.5, metsulfuron-methyl 6, ethametsulfuron-methyl 16, imazapyr isopropylamine salt 15, aclonifen 1200
From the text: as §2, §3

Sinapis arvensis = experiment: Test H weed control, field plots; assay type: in vivo; conditions: 36 days after treatment; g a.i./ha: tribenuron-methyl 22.5, metsulfuron-methyl 6, ethametsulfuron-methyl 16, imazapyr isopropylamine salt 15, aclonifen 1200
From the text: as §2, §3

Capsella bursa pastoris = experiment: Test H weed control, field plots; assay type: in vivo; conditions: 36 days after treatment; g a.i./ha: tribenuron-methyl 22.5, metsulfuron-methyl 6, ethametsulfuron-methyl 16, imazapyr isopropylamine salt 15, aclonifen 1200
From the text: as §2, §3

Matricaria inodora = experiment: Test H weed control, field plots; assay type: in vivo; conditions: 36 days after treatment; g a.i./ha: tribenuron-methyl 22.5, metsulfuron-methyl 6, ethametsulfuron-methyl 16, imazapyr isopropylamine salt 15, aclonifen 1200
From the text: as §2, §3

Setaria viridis = experiment: Test H weed control, field plots; assay type: in vivo; conditions: 36 days after treatment; g a.i./ha: tribenuron-methyl 22.5, metsulfuron-methyl 6, ethametsulfuron-methyl 16, imazapyr isopropylamine salt 15, aclonifen 1200
From the text: as §2, §3

Mercurialis annua = experiment: Test H weed control, field plots; assay type: in vivo; conditions: 36 days after treatment; g a.i./ha: tribenuron-methyl 22.5, metsulfuron-methyl 6, ethametsulfuron-methyl 16, imazapyr isopropylamine salt 15, aclonifen 1200
From the text: as §2, §3

Amaranthus retroflexus = experiment: Test H weed control, field plots; assay type: in vivo; conditions: 36 days after treatment; g a.i./ha: tribenuron-methyl 22.5, metsulfuron-methyl 6, ethametsulfuron-methyl 16, imazapyr isopropylamine salt 15, aclonifen 1200
From the text: as §2, §3

Viola arvensis = experiment: Test H weed control, field plots; assay type: in vivo; conditions: 36 days after treatment; g a.i./ha: tribenuron-methyl 22.5, metsulfuron-methyl 6, ethametsulfuron-methyl 16, imazapyr isopropylamine salt 15, aclonifen 1200
From the text: as §2, §3

Echinochloa crus-galli = experiment: Test H weed control, field plots; assay type: in vivo; conditions: 36 days after treatment; g a.i./ha: tribenuron-methyl 22.5, metsulfuron-methyl 6, ethametsulfuron-methyl 16, imazapyr isopropylamine salt 15, aclonifen 1200
From the text: as §2, §3

Polygonum convolvulus = experiment: Test H weed control, field plots; assay type: in vivo; conditions: 36 days after treatment; g a.i./ha: tribenuron-methyl 22.5, metsulfuron-methyl 6, ethametsulfuron-methyl 16, imazapyr isopropylamine salt 15, aclonifen 1200
From the text: as §2, §3

Polygonum aviculare = experiment: Test H weed control, field plots; assay type: in vivo; conditions: 36 days after treatment; g a.i./ha: tribenuron-methyl 22.5, metsulfuron-methyl 6, ethametsulfuron-methyl 16, imazapyr isopropylamine salt 15, aclonifen 1200
From the text: as §2, §3

Anagallis arvensis = experiment: Test H weed control, field plots; assay type: in vivo; conditions: 36 days after treatment; g a.i./ha: tribenuron-methyl 22.5, metsulfuron-methyl 6, ethametsulfuron-methyl 16, imazapyr isopropylamine salt 15, aclonifen 1200
From the text: as §2, §3

BC4-M5M12 = experiment: Test B greenhouse phytotoxicity, BC4-M5M12; assay type: in vivo, sunflower; conditions: BC4-M5M12; 15 g a.i./ha post-emergence 4-leaf stage
Protocol: as §1

M5M12 = experiment: Test B greenhouse phytotoxicity, M5M12; assay type: in vivo, sunflower; conditions: M5M12; 15 g a.i./ha post-emergence 4-leaf stage
Protocol: as §1

## CCOS(C)(=O)=O [EMS, ethyl methanesulfonate]
'HA89B' seed
  plants producing viable seed: more than half of the plants produced viable seed
'HA89B' seed; about 12% of plants from untreated seeds branched
  plant branching (visual measure of mutation frequencies): more than half of the plants were branched

## CCOc1nc(NC)nc(NC(=O)NS(=O)(=O)c2ccccc2C(=O)OC)n1 [Ethametsulfuron-methyl, ethametsulfuron-methyl]
BC4-M5M7
  Maximum Phytotoxicity: 5%
BC4-M5M11
  Maximum Phytotoxicity: 10%
[1]
  tolerance of the mutants: extremely resistant
M5M11
  Maximum Phytotoxicity: 0%
Stellaria media
  weed control, visual rating: Stellaria media: 79%
Chenopodium album
  weed control, visual rating: Chenopodium album: 0%
M5M7
  Maximum Phytotoxicity: 10%
Atriplex patula
  weed control, visual rating: Atriplex patula: 0%
Solanum nigrum
  weed control, visual rating: Solanum nigrum: 70%
Polygonum persicaria
  weed control, visual rating: Polygonum persicaria: 0%
Sinapis arvensis
  weed control, visual rating: Sinapis arvensis: 97%
Capsella bursa pastoris
  weed control, visual rating: Capsella bursa pastoris: 100%
Matricaria inodora
  weed control, visual rating: Matricaria inodora: 67%
Setaria viridis
  weed control, visual rating: Setaria viridis: 0%
Mercurialis annua
  weed control, visual rating: Mercurialis annua: 0%
Amaranthus retroflexus
  weed control, visual rating: Amaranthus retroflexus: 82%
Viola arvensis
  weed control, visual rating: Viola arvensis: 0%
Echinochloa crus-galli
  weed control, visual rating: Echinochloa crus-galli: 33%
Polygonum convolvulus
  weed control, visual rating: Polygonum convolvulus: 0%
Polygonum aviculare
  weed control, visual rating: Polygonum aviculare: 0%
Anagallis arvensis
  weed control, visual rating: Anagallis arvensis: 100%
BC4-M5M12
  Maximum Phytotoxicity: 0%
M5M12
  Maximum Phytotoxicity: 0%
